Measured values published in patent US20160168540A1, “COMPOSITION FOR MAINTAINING PLATELET FUNCTION” (KYOTO UNIVERSITY, priority 2013, published 2016).

Molecular target: T1, TACE (ADAM17) (Homo sapiens, UniProt P78536)
T1 construct: made in house; host or cells: mammalian cells or insect cells
Assay: TACE (ADAM17) inhibition test
Assay type: biochemical
Settings: fluorescent synthetic substrate, 37° C. for 1.5 hours; read-out: TACE IC50
Description: The nucleotide sequence of TACE has been reported by Moss et al. (Moss, M. L. et al., Nature 1997, vol. 385, pp. 733-736). Based on this information, the cDNA of TACE was obtained according to the prescribed method from THP-1 cells or the like, and then incorporated the cDNA into an expression vector. Next, this vector was transformed into mammalian cells or insect cells, and TACE protein was expressed. The TACE protein was isolated, and used as an enzyme. Further, a fluorescent synthetic substrate Nma(N-methylanthranilic acid)-Leu-Ala-Gln-Ala-Val-Arg-Ser-Ser-Lys(Dnp(dinitrophenyl))-D-Arg-NH2 including the TACE-cleaved sequence of a membrane-bound TNF was used as a substrate. The enzyme reaction was carried out by adding 1.8 μL of a solution of the test substance to 90 μL of a fluorescent synthetic substrate prepared with an assay buffer B (50 mM tris-hydrochloric acid buffer (pH 7.5) including 200 mM sodium chloride, 5 mM calcium chloride, 10 μM zinc sulfate, and 0.05% PLURONIC F-68), then mixing 90 μL of a TACE enzyme solution prepared with an assay buffer A (50 mM tris-hydrochloric acid buffer (pH 7.5) including 200 mM sodium chloride, 5 mM calcium chloride, 10 μM zinc sulfate, and 2 mg/mL bovine serum albumin) and reacting at 37° C. for 1.5 hours. Enzyme activity was then determined by measuring with a fluorescence intensity meter (Labsystems, Fluoroskan Ascent) at an excitation wavelength of 355 nm and a measurement wavelength of 460 nm. The 50% inhibitory concentration (IC50) of the test substances was calculated by comparing enzyme activity in the presence and the absence of the test substance to determine the inhibition rate. Further, test substances having an IC50 strength of less than 100 nM were evaluated as “A”, and test substances having an IC50 strength of 100 nM or more were evaluated as “B”.

T1 sequence (P78536 215-824): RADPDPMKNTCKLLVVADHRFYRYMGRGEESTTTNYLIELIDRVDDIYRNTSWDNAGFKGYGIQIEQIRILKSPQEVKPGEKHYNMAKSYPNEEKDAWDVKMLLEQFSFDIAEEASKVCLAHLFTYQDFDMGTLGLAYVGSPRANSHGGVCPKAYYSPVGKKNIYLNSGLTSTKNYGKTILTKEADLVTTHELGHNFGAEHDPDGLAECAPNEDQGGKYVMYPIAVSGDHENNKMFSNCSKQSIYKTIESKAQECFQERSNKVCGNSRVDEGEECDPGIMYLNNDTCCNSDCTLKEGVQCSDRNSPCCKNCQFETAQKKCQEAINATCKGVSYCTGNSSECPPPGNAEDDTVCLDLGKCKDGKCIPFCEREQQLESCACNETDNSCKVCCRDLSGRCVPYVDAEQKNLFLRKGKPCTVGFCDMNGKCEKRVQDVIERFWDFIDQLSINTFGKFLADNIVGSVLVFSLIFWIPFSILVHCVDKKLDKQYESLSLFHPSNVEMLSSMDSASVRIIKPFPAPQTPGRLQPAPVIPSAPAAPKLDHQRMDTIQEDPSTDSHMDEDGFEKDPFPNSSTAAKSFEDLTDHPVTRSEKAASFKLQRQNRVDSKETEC

| SMILES | IC50 [nM] |
| --- | --- |
| COc1cccc(-c2ccc(C3(Cn4cccc(C)c4=O)NC(=O)NC3=O)cc2)c1 (racemic) [Compound I-73] | < 100 |
| COc1ccccc1-c1ccc(C2(Cn3cccc(C)c3=O)NC(=O)NC2=O)cc1 (racemic) [Compound I-74] | < 100 |
| Cc1cccn(CC2(c3ccc(-c4ccc(F)cc4)cc3)NC(=O)NC2=O)c1=O (racemic) [Compound I-75] | < 100 |
| COc1ccc(C)cc1C1(Cn2cccc(C)c2=O)NC(=O)NC1=O (racemic) [Compound I-76] | ≥ 100 |
| Cc1cccn(CC2(c3ccc4c(c3)CCCC4)NC(=O)NC2=O)c1=O (racemic) [Compound I-77] | < 100 |
| Cc1cccn(CC2(c3ccc(OC(F)F)cc3)NC(=O)NC2=O)c1=O (racemic) [Compound I-78] | < 100 |
| Cc1cccn(CC2(c3ccc(OC(F)(F)F)cc3)NC(=O)NC2=O)c1=O (racemic) [Compound I-79] | < 100 |
| Cc1cccc(Oc2ccc(C3(Cn4cccc(C)c4=O)NC(=O)NC3=O)cc2)c1 (racemic) [Compound I-80] | < 100 |
| COc1ccc(Oc2ccc(C3(Cn4cccc(C)c4=O)NC(=O)NC3=O)cc2)cc1 (racemic) [Compound I-81] | < 100 |
| Cc1cccn(CC2(c3ccc(Oc4ccc(Cl)cc4)cc3)NC(=O)NC2=O)c1=O (racemic) [Compound I-82] | < 100 |
| COc1cccc(Oc2ccc(C3(Cn4cccc(C)c4=O)NC(=O)NC3=O)cc2)c1 (racemic) [Compound I-83] | < 100 |
| Cc1cccn(CC2(c3ccc(Oc4cccc(F)c4)cc3)NC(=O)NC2=O)c1=O (racemic) [Compound I-84] | < 100 |
| Cc1cccn(CC2(c3ccc(Oc4ccc(F)cc4)cc3)NC(=O)NC2=O)c1=O (racemic) [Compound I-85] | < 100 |
| Cc1cccn(CC2(c3ccc(Oc4ccccc4F)cc3)NC(=O)NC2=O)c1=O (racemic) [Compound I-86] | < 100 |
| Cc1cccn(CC2(c3ccc(Oc4ccccc4)c(F)c3)NC(=O)NC2=O)c1=O (racemic) [Compound I-87] | < 100 |
| Cc1cccn(CC2(c3ccc(OCc4ccc(F)cc4)cc3)NC(=O)NC2=O)c1=O (racemic) [Compound I-88] | < 100 |
| Cc1cccn(CC2(c3ccc(C(F)(F)F)cc3)NC(=O)NC2=O)c1=O (racemic) [Compound I-89] | < 100 |
| Cc1noc(C)c1-c1ccc(C2(Cn3cccc(C)c3=O)NC(=O)NC2=O)cc1 (racemic) [Compound I-90] | < 100 |
| COc1ccncc1-c1ccc(C2(Cn3cccc(C)c3=O)NC(=O)NC2=O)cc1 (racemic) [Compound I-91] | < 100 |
| Cc1cccn(CC2(c3ccc(-c4ccccn4)cc3)NC(=O)NC2=O)c1=O (racemic) [Compound I-92] | < 100 |
| Cc1cccn(CC2(c3cccc(-c4ccc(F)cn4)c3)NC(=O)NC2=O)c1=O (racemic) [Compound I-93] | < 100 |
| Cc1cccn(CC2(c3cccc(-c4ccccn4)c3)NC(=O)NC2=O)c1=O (racemic) [Compound I-94] | < 100 |

| SMILES | IC50 [nM] |
| --- | --- |
| Cc1cccn(CC2(c3cccc(-c4ccncc4)c3)NC(=O)NC2=O)c1=O (racemic) [Compound I-95] | < 100 |
| Cc1cccn(CC2(c3cccc(-c4ccccc4)c3)NC(=O)NC2=O)c1=O (racemic) [Compound I-96] | < 100 |
| Cc1cccn(CC2(c3ccc(Oc4ccc(F)cc4F)cc3)NC(=O)NC2=O)c1=O (racemic) [Compound I-97] | < 100 |
| Cc1cccn(CC2(c3ccc(Oc4ccc(F)c(F)c4)cc3)NC(=O)NC2=O)c1=O (racemic) [Compound I-98] | < 100 |
| Cc1cccn(CC2(c3ccc(Oc4cc(F)cc(F)c4)cc3)NC(=O)NC2=O)c1=O (racemic) [Compound I-99] | < 100 |
| Cc1cccn(CC2(c3ccc(Oc4cccc(C(F)(F)F)c4)cc3)NC(=O)NC2=O)c1=O (racemic) [Compound I-100] | < 100 |
| Cc1cccn(CC2(c3ccc(Oc4cccnc4)cc3)NC(=O)NC2=O)c1=O (racemic) [Compound I-101] | < 100 |
| Cc1cccn(CC2(c3ccc(Sc4ccccc4)cc3)NC(=O)NC2=O)c1=O (racemic) [Compound I-102] | < 100 |
| Cc1cccn(CC2(c3ccc(Sc4ccccc4)c(F)c3)NC(=O)NC2=O)c1=O (racemic) [Compound I-103] | < 100 |
| Cc1cccn(CC2(c3ccc(Oc4ccccc4F)c(F)c3)NC(=O)NC2=O)c1=O (racemic) [Compound I-104] | < 100 |
| Cc1cccn(CC2(c3ccc4c(c3)OCCCO4)NC(=O)NC2=O)c1=O (racemic) [Compound I-105] | < 100 |
| Cc1cccn(CC2(c3ccc(C#Cc4ccccc4)cc3)NC(=O)NC2=O)c1=O (racemic) [Compound I-106] | < 100 |
| Cc1cccn(CC2(c3ccc(CCc4ccccc4)cc3)NC(=O)NC2=O)c1=O (racemic) [Compound I-107] | < 100 |
| C=C(C)c1ccc(C2(Cn3cccc(C)c3=O)NC(=O)NC2=O)cc1 (racemic) [Compound I-108] | < 100 |
| Cc1cccn(CC2(c3ccc(C#Cc4ccccn4)cc3)NC(=O)NC2=O)c1=O (racemic) [Compound I-110] | < 100 |
| Cc1cccn(CC2(c3ccc(Oc4ccc(F)cc4)c(F)c3)NC(=O)NC2=O)c1=O (racemic) [Compound I-111] | < 100 |
| Cc1cccn(CC2(c3ccc(Oc4cccc(F)c4)c(F)c3)NC(=O)NC2=O)c1=O (racemic) [Compound I-112] | < 100 |
| COc1ccccc1Oc1ccc(C2(Cn3cccc(C)c3=O)NC(=O)NC2=O)cc1 (racemic) [Compound I-113] | < 100 |
| COc1ccccc1Oc1ccc(C2(Cn3cccc(C)c3=O)NC(=O)NC2=O)cc1F (racemic) [Compound I-114] | < 100 |
| Cc1cccn(CC2(c3ccc(CCc4ccccn4)cc3)NC(=O)NC2=O)c1=O (racemic) [Compound I-115] | < 100 |
| CCc1ccc(C2(Cn3cccc(C)c3=O)NC(=O)NC2=O)cc1 (racemic) [Compound I-116] | < 100 |
| Cc1cccn(CC2(c3ccc(C(C)C)cc3)NC(=O)NC2=O)c1=O (racemic) [Compound I-117] | < 100 |

| SMILES | IC50 [nM] |
| --- | --- |
| Cc1cccn(CC2(c3ccc(CCC4CCCCC4)cc3)NC(=O)NC2=O)c1=O (racemic) [Compound I-118] | ≥ 100 |
| CCOc1ccc(C2(Cn3cccc(C)c3=O)NC(=O)NC2=O)cc1 (racemic) [Compound I-119] | < 100 |
| Cc1cccn(CC2(c3ccc(OC(C)C)cc3)NC(=O)NC2=O)c1=O (racemic) [Compound I-120] | < 100 |
| Cc1cccn(CC2(c3ccc(CC(C)C)cc3)NC(=O)NC2=O)c1=O (racemic) [Compound I-121] | < 100 |
| Cc1cccn(CC2(c3ccc(Oc4cccnc4)c(F)c3)NC(=O)NC2=O)c1=O (racemic) [Compound I-122] | < 100 |
| Cc1cccn(CC2(c3ccc(Oc4ccccc4)c(Cl)c3)NC(=O)NC2=O)c1=O (racemic) [Compound I-123] | < 100 |
| Cc1cccn(CC2(c3ccc(OC4CCCC4)cc3)NC(=O)NC2=O)c1=O (racemic) [Compound I-124] | < 100 |
| Cc1cccn(CC2(c3ccc(Cl)c(Cl)c3)NC(=O)NC2=O)c1=O (racemic) [Compound I-125] | < 100 |
| Cc1cccn(CC2(c3ccc(F)c(Cl)c3)NC(=O)NC2=O)c1=O (racemic) [Compound I-126] | < 100 |
| COc1cc(C2(Cn3cccc(C)c3=O)NC(=O)NC2=O)cc(F)c1F (racemic) [Compound I-127] | < 100 |
| Cc1ccc(C2(Cn3cccc(C)c3=O)NC(=O)NC2=O)c(F)c1F (racemic) [Compound I-128] | < 100 |
| Cc1cc(C2(Cn3cccc(C)c3=O)NC(=O)NC2=O)cc(C)c1OC1CCCC1 (racemic) [Compound I-129] | < 100 |
| Cc1cccn(CC2(c3ccc(Cc4ccc(Cl)cc4)cc3)NC(=O)NC2=O)c1=O (racemic) [Compound I-130] | < 100 |
| Cc1cc(C2(Cn3cccc(C)c3=O)NC(=O)NC2=O)ccc1OC1CCCCC1 (racemic) [Compound I-131] | < 100 |
| O=C1NC(=O)C(Cn2cccc(F)c2=O)(c2ccccc2)N1 (racemic) [Compound I-132] | < 100 |
| COc1ccc(C2(Cn3cccc(F)c3=O)NC(=O)NC2=O)cc1 (racemic) [Compound I-133] | < 100 |
| N#Cc1ccc(C2(Cn3cccc(F)c3=O)NC(=O)NC2=O)cc1 (racemic) [Compound I-134] | < 100 |
| O=C1NC(=O)C(Cn2cccc(F)c2=O)(c2ccc3ccccc3c2)N1 (racemic) [Compound I-135] | < 100 |
| O=C1NC(=O)C(Cn2cccc(Cl)c2=O)(c2ccc(F)cc2)N1 (racemic) [Compound I-136] | < 100 |
| COc1ccc(C2(Cn3cccc(Cl)c3=O)NC(=O)NC2=O)cc1 (racemic) [Compound I-137] | < 100 |
